Laboratory results taken from patent EP4541797A1, “CAMPTOTHECIN DERIVATIVE, METHOD FOR PREPARING SAME, AND USE THEREOF” (Hangzhou Adcoris Biopharma Co., Ltd, priority 2022, dated 2024).
Read-outs that look alike come from different tables or passages of the source.

How the values were obtained:
Assay type in all cases: cell-based
OE33 cells = experiment: Inhibitory activity on cancer cell growth (CCK-8, 72 h), OE33 cells; conditions: Homo sapiens, OE33, 72 h, human esophageal cancer cells OE33, 72 h incubation
Protocol: (§1) Human esophageal cancer cells OE33, human breast adenocarcinoma cells SK-BR-3 and human gastric cancer cells NCI-N87 were cultured in RPMI1640 (Cellmax) supplemented with 10% fetal bovine serum (Cellmax) respectively. Cells in the exponential growth phase were diluted to a concentration of 1×10^5cells/mL by culture medium and added to 96-well cell culture plates at 100µL per well, then incubated overnight in a 37°C incubator with 5% CO2. On the following day, the test compounds and control compounds were diluted to concentrations of 10000 nM, 2000 nM, 400 nM, 80 nM, 16 nM, 3.2 nM, 0.64 nM, and 0.13 nM by culture medium and added to the 96-well cell culture plates at 2µL per well, with three replicate wells for each concentration. Negative control and blank control groups without the addition of compounds were supplemented with 2µL of the dilution liquid per well. After the addition of the compounds, the plates were returned to the 37°C incubator with 5% CO2 to continue incubation for 72 h. After incubation, the cell culture plates were removed, and the culture medium was aspirated using a pipette. Then, 100µL of culture medium containing 10% CCK-8 was added to each well, and the plates were incubated at 37°C for 3 h. After incubation, the plates were removed, kept in the dark, and placed in ELISA plate. Absorbance was measured at 630nm as the reference wavelength and 450nm as the test wavelength. The IC50 values (Tables 1-3) were calculated using the four-parameter logistic regression method in GraphPad, based on the absorbance values. SN38 (7-ethyl-10-hydroxycamptothecin) and 10CPT (10-hydroxycamptothecin) were used as control compounds. For the IC50 values, wherein "++++" indicates an IC50 < 50 nM; "+++" indicates an IC50 between 50 nM and 100 nM; "++" indicates an IC50 between 100 nM and 500 nM; and "+" indicates an IC50 > 500 nM. Table 1: Inhibitory activity of compounds to inhibit the growth of OE33 cells

SK-BR-3 cells = experiment: Inhibitory activity on cancer cell growth (CCK-8, 72 h), SK-BR-3 cells; conditions: Homo sapiens, SK-BR-3, 72 h, human breast adenocarcinoma cells SK-BR-3, 72 h incubation
Protocol: as §1

NCI-N87 cells = experiment: Inhibitory activity on cancer cell growth (CCK-8, 72 h), NCI-N87 cells; conditions: Homo sapiens, NCI-N87, 72 h, human gastric cancer cells NCI-N87, 72 h incubation
Protocol: as §1

[1] = numeric value or bound, read-out: IC50

`CC[C@@]1(O)C(=O)OCc2c1cc1n(c2=O)Cc2cc3c(CN(C)C(C)C)c(O)ccc3nc2-1` [Compound 10, 9-(N-methyl-N-isopropylamino)methyl-10-hydroxycamptothecin] was tested, and the IC50 (OE33 cells; [1]) was less than 100 nM, the IC50 (OE33 cells; read-out: IC50) was 50 to 100 nM and the IC50 (SK-BR-3 cells; bound stated, read-out: IC50) was less than 100 nM. For the same compound, the IC50 (SK-BR-3 cells; read-out: IC50) was 50 to 100 nM, the IC50 (NCI-N87 cells; bound stated, read-out: IC50) was less than 100 nM and the IC50 (NCI-N87 cells; read-out: IC50) was less than 50 nM.

For `CC[C@@]1(O)C(=O)OCc2c1cc1n(c2=O)Cc2cc3c(CN4CCN(C(=O)OC)CC4)c(O)ccc3nc2-1` [Compound 9, 9-(1-(4-methoxycarbonylpiperazine))methyl-10-hydroxycamptothecin], the IC50 (OE33 cells; read-out: IC50) was 100 to 500 nM, the IC50 (SK-BR-3 cells; read-out: IC50) was 50 to 100 nM and the IC50 (NCI-N87 cells; read-out: IC50) was less than 50 nM.

For `CCN(C)Cc1c(O)ccc2nc3c(cc12)Cn1c-3cc2c(c1=O)COC(=O)[C@]2(O)CC` [Compound 19, 9-(N-methylethylamine)methyl-10-hydroxycamptothecin], the IC50 (OE33 cells) was 50 to 100 nM, the IC50 (OE33 cells; numeric value or bound) was less than 100 nM and the IC50 (SK-BR-3 cells) was 50 to 100 nM. The IC50 (SK-BR-3 cells; bound stated) was less than 100 nM, the IC50 (NCI-N87 cells) was less than 50 nM and the IC50 (NCI-N87 cells; bound stated) was less than 100 nM.

Compound `CC[C@@]1(O)C(=O)OCc2c1cc1n(c2=O)Cc2cc3c(CN(C)C4CC4)c(O)ccc3nc2-1` [Compound 17, 9-(N-methyl-N-cyclopropylamine)methyl-10-hydroxycamptothecin] has an IC50 (OE33 cells; [1]) of less than 100 nM, an IC50 (OE33 cells; read-out: IC50) of 50 to 100 nM and an IC50 (SK-BR-3 cells; bound stated, read-out: IC50) of less than 100 nM. For the same compound, the IC50 (SK-BR-3 cells; read-out: IC50) was 50 to 100 nM, the IC50 (NCI-N87 cells; bound stated, read-out: IC50) was less than 100 nM and the IC50 (NCI-N87 cells; read-out: IC50) was less than 50 nM.
